# Test results as given in PubChem BioAssay (NCI).
# “And” between values parts separate entries of the source, which are not always exact repeats. Equal entries are not always repeated.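 Method: 48-hour compound exposure of cells in 96-well plates, five concentrations, linear interpolation of endpoints. GI50 marks 50% less growth. The concentration for full growth arrest is given as TGI.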
# What was measured:
# Assay in all cases: NCI-60 cell line screen, 48 h
# [1] = test system: BT-549 breast
# [2] = test system: IGROV1 ovarian
# [3] = test system: MDA-MB-231 breast
# [4] = test system: KM12 colon
# [5] = test system: MDA-N
# [6] = test system: U251 CNS
# [7] = test system: UO-31 renal
# [8] = test system: SNB-75 CNS
# [9] = test system: SN12C renal
# [10] = test system: SF-539 CNS
# [11] = test system: CCRF-CEM leukemia
Compound,TGI [1] [µM],TGI [2],TGI [3] [µM],TGI [4],TGI [5] [µM],TGI [6],TGI [7] [µM],TGI [8],TGI [9],TGI [10] [µM],TGI [11] [µM],GI50 [4] [µM],GI50 [6] [µM],GI50 [11] [µM]
CCC[C@@H]1C(=O)N=C(N)N1C(=O)OCc1ccccc1,> 100,> 100 µM,> 100,> 100 µM,> 100,> 100 µM,> 100,> 100 µM,> 100 µM,,,,,
Cc1ccc([N+](=O)[O-])c2c(NCC(O)CO)ccnc12 (stereo not drawn),> 100,> 100 µM,,> 100 µM,> 100,> 100 µM,> 100,> 100 µM,> 100 µM,48.6,> 100,,,
COc1ccc(C2=NN=C3C(c4ccccc4)=Nc4ccccc4N3C2)cc1,> 100,> 100 µM,> 100,> 100 µM,> 100,> 100 µM,49.8,,> 100 µM,> 100,8.24,,,
Cc1c(C(=O)O)n2cnnc2c2ccccc12,> 100,> 100 µM,> 100,> 100 µM,> 100,> 100 µM,> 100,,> 100 µM,> 100,> 100,,,
CCOC(=O)C(NC(=O)OC(C)(C)C)C(=O)OCC,> 100,> 100 µM,,> 100 µM,,> 100 µM,> 100,> 100 µM,> 100 µM,,> 100,,,
OC(CC(O)(C(F)(F)F)C(F)(F)F)c1ccc(C(O)CC(O)(C(F)(F)F)C(F)(F)F)cc1 (stereo not drawn),,23.3 µM,28.7,,35.4,31.1 µM,23,31.8 µM,,29.4,36.9,,,
CCN(CC)CC(=N)N(CC)c1ccccc1,,> 100 µM,,> 100 µM,,> 100 µM,> 100,> 100 µM,> 100 µM,> 100,> 100,,,
COc1ccc(N2C(=O)C3c4[nH]c5ccccc5c4C4CCCCC4C3C2=O)cc1 (stereo not drawn),,64.3 µM,,> 100 µM,,38.6 µM,> 100,17.5 µM,> 100 µM,32.8,29.1,,,
Cc1ccc(-n2cc([Si](C)(C)C)nn2)s1,> 100,,> 100,,> 100,> 100 µM,> 100,,> 100 µM,> 100,,,,
CC(C)(C)OC(=O)NCC(=O)N1CCN(C(=O)CNC(=O)OC(C)(C)C)CC1,> 100,> 100 µM,> 100,> 100 µM,> 100,> 100 µM,> 100,,> 100 µM,> 100,> 100,,,
Fc1cc(-c2cc(-c3ccc4c(c3)OCO4)n[nH]2)c(Cl)cc1Cl,20.7,7.5 µM,4.94,> 22.7 µM,,3.63 µM,6.46,3.68 µM,7.58 µM,6.24,> 89,,,
NC1CC=C(COC(=O)C(O)(c2ccccc2)C2CC2)CC1 (stereo not drawn),,> 100 µM,> 100,> 100 µM,> 100,> 100 µM,> 100,> 100 µM,> 100 µM,> 100,,,,
O=C1CSc2cc([N+](=O)[O-])ccc2N1,,> 100 µM,,> 100 µM,,> 100 µM,,> 100 µM,> 100 µM,> 100,> 100,,,
N#CC(C#N)=C1C(=O)NC(N)=C1C#N,> 100,> 100 µM,> 100,> 100 µM,> 100,> 100 µM,> 100,,> 100 µM,,> 100,,,
COc1ccc(Nc2nc(N)c(C(=O)c3cccs3)s2)cc1,> 100,41.5 µM,> 80.8,15.9 µM,> 82.4,> 100 µM,> 41.1,,> 75.6 µM,19.5,12.8,,,
O=C1c2ccccc2C(=O)c2[nH]c(Cc3ccc(F)cc3)nc21,,26.2 µM,,32.9 µM,,47 µM,59.5,38.3 µM,51.3 µM,32,> 100,,,
C/C=C(/C)C(=O)O[C@H]1[C@H](O)CC(c2ccc3c(c2O)C(O)=C2C(=O)C4(OC)C(O)=C(C(N)=O)C(=O)[C@H](CC(=O)c5ccccc5O)C4CC2[C@@]3(C)OC)O[C@@H]1C (stereo partly drawn),0.892,2.48 µM and 0.341 µM,1.35,0.226 µM and 0.0935 µM,2.09,0.148 µM and 0.117 µM,2.34,2.05 µM and 0.705 µM,1.39 µM and 0.198 µM,0.101,,,,
Cn1c(=O)c2/c(n(C)c1=O)=N\C=c1\c(=O)n(C)c(=O)n(C)\c1=N\C=2,,> 100 µM,,> 100 µM,,> 100 µM,> 100,> 100 µM,> 100 µM,> 100,> 100,,,
O=C(/C=C\c1cccc2ccccc12)c1cccc2ccccc12,,25.9 µM,,16.5 µM,,24.4 µM,27.4,18.6 µM,> 100 µM,28,8.97,4.2,12,2.28
Cc1ccc(N=C2C(=Nc3ccc(C)cc3)N(c3ccc(C)cc3)C(=S)N2C(=O)c2ccccc2)cc1,> 100,> 100 µM,> 100,> 100 µM,> 100,> 100 µM,> 100,81.2 µM,> 100 µM,> 100,,,,
Oc1ccc(Cl)cc1C1=NC(/N=C\c2ccccc2)=NC(c2ccccc2)C1 (stereo not drawn),> 100,> 100 µM,> 100,> 100 µM,,> 100 µM,74.1,64.7 µM,> 100 µM,> 100,> 100,,,
CC(=O)[CH-]C(=O)c1ccccc1.CC(=O)[CH-]C(=O)c1ccccc1.CC[O-].O=C1c2ccccc2C(=O)c2c1ccc(O)c2[O-].[Ti+4],,> 100 µM,,> 100 µM,,> 100 µM,86.9,> 100 µM,> 100 µM,> 100,56.6,,,
CC(=O)N/C(=C\c1ccc(Cc2nc3c([nH]2)C(=O)c2ccccc2C3=O)cc1)c1nc2c([nH]1)C(=O)c1ccccc1C2=O,,> 100 µM,,> 100 µM,,> 100 µM,> 100,> 100 µM,> 100 µM,> 100,> 100,,,

Compound,TGI [1] [µM],TGI [2],TGI [3] [µM],TGI [4],TGI [5] [µM],TGI [6],TGI [7] [µM],TGI [8],TGI [9],TGI [10] [µM],TGI [11] [µM],GI50 [4] [µM],GI50 [6] [µM],GI50 [11] [µM]
O=S1Nc2c(Cl)cc(Cl)c(Cl)c2S1 (stereo not drawn),,> 100 µM,,> 100 µM,,> 100 µM,> 100,> 100 µM,> 100 µM,> 100,> 100,,,
C=C(c1ccccc1)c1ccccc1-c1cc(-c2ccccc2)cc(-c2ccccc2)n1,,> 100 µM,> 100,> 100 µM,> 100,> 100 µM,> 100,> 100 µM,> 100 µM,> 100,> 100,,,
CN(Cc1cc(Cl)c(Cl)cc1NC(=O)CN)[C@H]1CCCC[C@@H]1N1CCCC1,,> 100 µM,> 100,> 100 µM,31.4,18.8 µM,> 100,> 100 µM,> 100 µM,,> 100,,,
O=C(O)CCC(NC(=O)c1ccc(Nc2nc3cc(C(F)(F)F)ccc3nc2C(=O)O)cc1)C(=O)O (stereo not drawn),,> 100 µM,> 100,> 100 µM,> 100,> 100 µM,> 100,> 100 µM,,> 100,> 100,,,
C/C=N\N1C(=O)c2ccccc2C1=O,,> 100 µM,,> 100 µM,,,> 100,> 100 µM,> 100 µM,> 100,> 100,,,
CC1=NN(c2nc(N)nc(CF)n2)C(C)(C)C1,> 100,> 100 µM,> 100,> 100 µM,,> 100 µM,> 100,> 100 µM,,> 100,> 100,,,
COC(=O)C1=C(C(=O)OC)SC2(S1)C(C(=O)OC)=C(C(=O)OC)Sc1c2ssc1=NC(C)(C)C,7.47,3.16 µM,3.44,3.91 µM,,3.54 µM,3.34,2.92 µM,2.52 µM,2.69,,,,
N#CCC(=O)N1CCCCCCC1,,> 100 µM,,> 100 µM,,> 100 µM,> 100,,> 100 µM,> 100,> 100,,,
CCN1CCC(O)(/C=C/c2ccc(OC)cc2)C(C(=O)/C=C/c2ccc(OC)cc2)C1 (stereo not drawn),28.9,29.8 µM,17.5,19.9 µM,,19.7 µM,21.5,,28 µM,27.8,5.76,,,
COc1cc(Br)c(CC2C3=C(CCN2C(=O)C2CCC2)CC(=O)CC3)cc1O (stereo not drawn),,> 100 µM,> 100,73.3 µM,45,> 100 µM,> 100,71.1 µM,> 100 µM,> 100,87.6,,,
O=c1oc2ccccc2c(O)c1C(C/C(CCN1CCCC1)=N\Nc1ccccc1)c1ccccc1 (stereo not drawn),,> 100 µM,,> 100 µM,,> 100 µM,> 100,> 100 µM,> 100 µM,> 100,69.5,,,
CCc1cccc(C)c1NC(=O)CC1C(=O)Nc2ccccc2S1(=O)=O (stereo not drawn),,35.2 µM,,,,32.5 µM,27.7,31.2 µM,63.6 µM,24.6,41.6,,,
O=C(CSc1nc2ccccc2c(=O)n1-c1ccccc1)N=Nc1c(O)[nH]c2ccc(F)cc12,,,4.79,32.6 µM,14,> 100 µM,3.73,,,9.21,5.04,,,
NC(CSSCC(N)Cc1ccccc1)Cc1ccccc1 (stereo not drawn),,> 100 µM,,94 µM,,> 100 µM,> 100,,> 100 µM,,> 100,,,
C=CCC(C(=O)Nc1cccc2[nH]cnc12)C(=O)OCC (stereo not drawn),> 100,> 100 µM,> 100,> 100 µM,> 100,> 100 µM,> 100,> 100 µM,> 100 µM,> 100,,,,
COc1ccc2c(c1)OC[C@@H]1c3cc(O)c(OCc4ccccc4)cc3O[C@H]21,,> 100 µM,,> 100 µM,,68.4 µM,75.9,65.4 µM,,> 100,> 100,,,
CC(C)(C)[Si](C)(C)OCC1OC(n2cnc3c(=O)[nH]c(N)nc32)C(O[Si](C)(C)C(C)(C)C)C1O[Si](C)(C)C(C)(C)C (stereo not drawn),,3.91 µM,10.5,3.19 µM,3.3,3.71 µM,15.3,9.57 µM,5.02 µM,5.72,,,,
O=C1/C(=C/c2ccc(Br)cc2)CCC/C1=C\c1ccc(Br)cc1,,38.7 µM,,10.9 µM,,20.5 µM,24.7,69.3 µM,53 µM,33.8,24.4,,,
O=C1NCCS(=O)(=O)N2CCC[C@@H]12,,> 100 µM,,> 100 µM,,> 100 µM,> 100,> 100 µM,> 100 µM,> 100,> 100,,,
CCOC(=O)c1c(-c2cccc3ccccc23)c(C#N)c(=S)n(C2OC(COC(C)=O)C(OC(C)=O)C(OC(C)=O)C2OC(C)=O)c1C (stereo not drawn),,> 100 µM,> 100,> 100 µM,> 100,> 100 µM,3.49,87.9 µM,> 100 µM,> 100,> 100,,,
C=CC(C)(C)C(=C)C(=O)Nc1ccccc1I,,,> 100,> 100 µM,> 100,> 100 µM,> 100,> 100 µM,> 100 µM,,> 100,,,
CNc1ncnc2c1cnn2Cc1cn(COCC(O)CO)nn1 (stereo not drawn),> 100,> 100 µM,> 100,> 100 µM,> 100,> 100 µM,> 100,,> 100 µM,> 100,> 100,,,
CC1(C)N=C(c2ccccn2)C(c2ccccn2)=NC1(C)C,,> 100 µM,,> 100 µM,,> 100 µM,> 100,,> 100 µM,> 100,> 100,,,
